Data from patent publication US8452543B2, “High throughput screening for antimicrobial dosing regimens” (priority 2005, dated 2013).

What was measured:
[1] = test system: P. aeruginosa ATCC 27853 and its isogenic OprD− mutant (1000:1); experiment: Murine pneumonia model; assay type: in vivo, mice
Description: (§1) Female Swiss-Webster mice (22-26 g) were used; all mice were cared for in accordance to the highest humane and ethical standards, as approved by the Institutional Animal Care and Use Committee (IACUC). The animals were housed in isolation boxes to decrease the risk of infection from extraneous pathogens. They received food and water ad libitum. The animals were rendered neutropenic by 2 intra-peritoneal injections of cyclophosphamide (Sigma, St. Louis, Mo.) 150 mg/kg on day −4 and 100 mg/kg on day −1 prior to infection; previous studies have shown that this regimen would produce neutropenia for 5 days (13, 16). Transient nephrotoxicity was induced by 1 intra-peritoneal injection of uranyl nitrate (5 mg/kg on day −2), which has been previously shown to produce a significant stable reduction in renal function for at least 7 days (21).
Each mouse was anesthetized with a single intra-peritoneal dose ([…]) of tribromoethanol (Sigma, St. Louis, Mo.), and was intubated under laryngoscopic guidance. For each mouse, the correct placement of endotracheal tube was verified by placing a cooled mirror surface close to the exit to observe water vapor condensation. A few colonies of the bacterial isolates were inoculated into Ca-MHB and incubated at 35° C. until they reached late log phase growth. The bacterial suspension was diluted to the desired concentration of approximately 10^8 CFU/ml based on absorbance at 630 nm; a mixture of wild-type and its isogenic OprD^− mutant in a 1000:1 ratio was used to mimic a heterogeneous bacterial population. The inocula (10 μl) were directly inoculated into the trachea of the anesthetized animals.
Two hours after infection, 3 mice were sacrificed by CO2 asphyxiation to ascertain the bacterial burden in lung tissues. The lung tissues were aseptically collected and homogenized in 10 ml of sterile saline. The homogenates were centrifuged at 6000×G for 15 minutes. The supernatant was discarded and the pellets were re-suspended in normal saline to 10× their original volumes in order to minimize drug carry-over effect. They were then diluted ten-fold serially and quantitatively cultured on Mueller-Hinton agar (MHA) plates (Hardy Diagnostics, Santa Maria, Calif.) and MHA plates supplemented with meropenem at 3× the MIC of the wild-type isolate. The media plates were incubated at 35° C. in a humidified incubator for up to 24 hours (for MHA plates) and 72 hours (for meropenem-supplemented MHA plates) before reading and the bacterial burden in lung tissues enumerated.
The remaining mice were observed every 8 hours for 4 days, with or without meropenem (400 mg/kg) given intra-peritoneally every 8 hours (10 mice in each group). Total bacterial burden and those with reduced susceptibility in animal lung tissues were determined in a similar manner upon death or at the end of the experiment. Susceptibility testing was repeated on representative isolates recovered from meropenem-supplemented plates to confirm the presence of resistance.

[2] = test system: amikacin resistant A. baumannii isolates; experiment: Resistance confirmation, repeat susceptibility testing, amikacin; assay type: cell-based, Acinetobacter baumannii; details: amikacin resistant isolates
Description: The media plates were incubated at 35° C. for up to 24 (total population) and 72 hours (sub-populations with reduced susceptibility), then bacterial density from each sample was enumerated visually. The theoretical lower limit of detection was 400 CFU/ml.

Pseudomonas aeruginosa = assay type: cell-based
Description: The computer simulations were compared to experimental data from an in-vitro hollow fiber infection model with similar antimicrobial agent exposures (20). Basically the drug was injected directly into the central reservoir to achieve the peak concentration desired. Fresh (drug-free) growth medium (Ca-MHB) was continuously infused from the diluent reservoir into the central reservoir to dilute the drug in order to simulate drug elimination in humans. An equal volume of meropenem-containing medium was removed from the central reservoir concurrently to maintain an isovolumetric system. […]
Various elimination half-lives (1-3 hours) of meropenem were simulated and were validated subsequently in the infection models. Serial samples were obtained at baseline and daily (pre-dose) in duplicate from each hollow fiber system, for quantitative culture to define the effect of various drug exposures on the total bacterial population and on selection of resistant bacterial sub-populations.
Prior to culturing the bacteria quantitatively, the bacterial samples were centrifuged at 15,000 G for 15 minutes and reconstituted with sterile normal saline in order to minimize drug carry-over effect. Total bacterial populations were quantified by spiral plating 10× serial dilutions of the samples (50 μl) onto drug-free Mueller-Hinton agar (MHA) plates (Hardy Diagnostics, Santa Maria, Calif.). […]

in vivo = experiment: in vivo
Description: In vivo meropenem concentrations in mouse serum were determined by a microbioassay utilizing Escherichia coli ATCC 25922 as the reference organism. The meropenem standard solutions ranged from 0.5 to 128 μg/ml in mouse serum.
as §1
The bacterial inoculum was prepared and inoculated into the animals as outlined below. […] Six mice were sacrificed by CO2 asphyxiation at 0.5, 1, 1.5, 2, and 3 hours after injection. Blood samples were collected via cardiac puncture. The blood was allowed to clot on ice and centrifuged; meropenem concentrations in these serum samples were assayed by a validated method as described below. The serum concentration profiles of all the animals were analyzed by linear regression of the logarithmic-transformed data.

[3] = 10 mice received meropenem treatment
[4] = female, Swiss-Webster, mouse, in vivo, 400 mg/kg

## C[C@@H](O)[C@H]1C(=O)N2C(C(=O)O)=C(S[C@@H]3CN[C@H](C(=O)N(C)C)C3)[C@H](C)[C@H]12 [meropenem]
[1]; 400 mg/kg intra-peritoneally every 8 hours
  survival over 4 days: 100%
[1]; 400 mg/kg intra-peritoneally every 8 hours, 96 hours
  animals with complete replacement of bacterial population by the OprD− mutant in lung tissue: 30%
[1]; [3]
  mice in which resistance emergence was found: 3 mice
  mice that survived up to 96 hours: 10 mice
[1]; repeat susceptibility testing
  MIC of isolates recovered from meropenem-supplemented MHA plates compared to the OprD− mutant: did not reveal a substantial increase in MIC
[2]
  cross-resistance: not
Pseudomonas aeruginosa
  microbial response: associated with regrowth
Pseudomonas aeruginosa; Cmax 64 μg/ml, dosing every 8 hours for 5 days
  Cmin/MIC necessary to suppress the emergence of resistance: ≥ 4
In vivo; 400 mg/kg, OprD− mutant
  % T>MIC: 26%
In vivo; 400 mg/kg, wild-type isolate
  % T>MIC: 33%
In vivo; [4]
  Cmax: 354 µg/mL
  half-life: 19 min
In vivo; lower doses (50 mg/kg and 100 mg/kg)
  serum concentration: did not result a detectable serum meropenem concentration beyond 1 hour
